Read-outs that look alike come from different tables or passages of the source.
How the values were obtained:
human EphB4 receptor = biological target: T1, human EphB4 receptor (Homo sapiens, UniProt P54760); assay: EphB4 kinase assay, GST-EphB, 33P incorporation into poly(Glu,Tyr); assay type: biochemical
T1 construct: made in house; host or cells: Sf9 or Sf21 (baculovirus)
T1 sequence (P54760 566-987): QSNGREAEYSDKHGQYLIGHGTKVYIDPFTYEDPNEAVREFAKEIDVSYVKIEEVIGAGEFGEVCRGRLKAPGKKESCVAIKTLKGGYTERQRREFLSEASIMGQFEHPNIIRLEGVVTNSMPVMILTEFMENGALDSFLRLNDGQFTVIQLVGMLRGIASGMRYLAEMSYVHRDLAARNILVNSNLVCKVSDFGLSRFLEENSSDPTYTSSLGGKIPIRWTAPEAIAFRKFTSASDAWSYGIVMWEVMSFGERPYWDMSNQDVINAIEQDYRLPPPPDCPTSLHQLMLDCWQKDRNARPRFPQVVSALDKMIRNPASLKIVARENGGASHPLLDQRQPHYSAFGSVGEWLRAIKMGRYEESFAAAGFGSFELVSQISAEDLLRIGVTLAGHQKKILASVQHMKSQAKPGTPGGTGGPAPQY
Description: EphB4: Production and measure of enzymatic activity: Generation of Bac-to-Bac™ (Initrogen Life Technologies, Basel, Switzerland) GST-fusion expression vectors: Entire cytoplasmatic coding regions of the EphB-class are amplified by PCR from cDNA libraries derived from human placenta or brain, respectively. Recombinant baculovirus are generated that express the amino acid region 566-987 of the human EphB4 receptor (SwissProt Database, Accession No. P54760). GST sequence is cloned into pFastBac1® vector (Invitrogen Life Technologies, Basel, Switzerland) and PCR amplified. cDNAs encoding EphB4-receptor domains, respectively, are cloned in frame 3′prime to the GST sequence into this modified FastBac1 vector to generate pBac-to-Bac™ donor vectors. Single colonies arising from the transformation are inoculated to give overnight cultures for small scale plasmid preparation. […] By automated sequencing the inserts and approximately 50 bp of the flanking vector sequences are confirmed on both strands. Production of viruses: Viruses for each of the kinases are made according to the protocol supplied by GIBCO if not stated otherwise. In brief, transfer vectors containing the kinase domains are transfected into the DH10Bac cell line (GIBCO) and plated on selective agar plates. Colonies without insertion of the fusion sequence into the viral genome (carried by the bacteria) are blue. Single white colonies are picked and viral DNA (bacmid) isolated from the bacteria by standard plasmid purification procedures. Sf9 cells or Sf21 cells are then transfected in 25 cm2 flasks with the viral DNA using Cellfectin reagent according to the protocol. Purification of GST-tagged kinases: The centrifuged cell lysate is loaded onto a 2 mL glutathione-sepharose column (Pharmacia) and washed three times with 10 mL of 25 mM Tris-HCl, pH 7.5, 2 mM EDTA, 1 mM DTT, 200 mM NaCl. The GST-tagged proteins are then eluted by 10 applications (1 mL each) of 25 mM Tris-HCl, pH 7.5, 10 mM reduced-glutathione, 100 mM NaCl, 1 mM DTT, 10% Glycerol and stored at −70° C. Protein kinase assays: The activities of protein kinases are assayed in the presence or absence of inhibitors, by measuring the incorporation of 33P from [γ33P]ATP into a polymer of glutamic acid and tyrosine (poly(Glu,Tyr)) as a substrate. The kinase assays with purified GST-EphB (30 ng) are carried out for 15-30 min at ambient temperature in a final volume of 30 μL containing 20 mM Tris.HCl, pH 7.5, 10 mM MgCl2, 3-50 mM MnCl2, 0.01 mM Na3VO4, 1% DMSO, 1 mM DTT, 3 μg/mL poly(Glu,Tyr) 4:1 (Sigma; St. Louis, Mo., USA) and 2.0-3.0 μM ATP (γ-[33P]-ATP 0.1 μCi). The assay is terminated by the addition of 20 μL of 125 mM EDTA. Subsequently, 40 μl of the reaction mixture are transferred onto Immobilon-PVDF membrane (Millipore, Bedford, Mass., USA) previously soaked for 5 min with methanol, rinsed with water, then soaked for 5 min with 0.5% H3PO4 and mounted on vacuum manifold with disconnected vacuum source. After spotting all samples, vacuum is connected and each well rinsed with 200 μl 0.5% H3PO4. Membranes are removed and washed 4× on a shaker with 1.0% H3PO4, once with ethanol. Membranes are counted after drying at ambient temperature, mounting in Packard TopCount96-well frame, and addition of 10 μL/well of Microscint™ (Packard). IC50 values are calculated by linear regression analysis of the percentage inhibition of each compound in duplicate, at four concentrations (usually 0.01, 0.1, 1 and 10 μM). One unit of protein kinase activity is defined as 1 nmole of 33P ATP transferred from [γ33P] ATP to the substrate protein per minute per mg of protein at 37° C. Compounds of formula I show EphB4 inhibition down to 10 nM, preferably IC50 values between 0.01-1.0 μM.

[1] = Table 5, read-out: EphB4, IC50 class
[2] = Table 4, read-out: EphB4, activity (IC50 for kinase inhibition)

| Structure (SMILES) | melting point [°C] | IC50 (human EphB4 receptor; [1]) [nM] | IC50 (human EphB4 receptor; [2]) [nM] |
| --- | --- | --- | --- |
| CN1CCN(c2cccc(-c3cnn4c(N)c(Cc5ccccc5)cnc34)c2)CC1 [Example 91, 6-Benzyl-3-[3-(4-methyl-piperazin-1-yl)-phenyl]-pyrazolo[1,5-a]pyrimidin-7-ylamine] | 72 to 75 | < 1000 |  |
| Cc1nc2c(-c3cccc(N4CCN(CCO)CC4)c3)cnn2c(N)c1-c1ccc(F)c(Cl)c1 [Example 100, 2-(4-{3-[7-Amino-6-(3-chloro-4-fluoro-phenyl)-5-methyl-pyrazolo[1,5-a]pyrimidin-3-yl]-phenyl}-piperazin-1-yl)-ethanol] | 104 to 107 | < 1000 |  |
| COc1cccc(-c2cnn3c(N)c(-c4cccc(O)c4)cnc23)c1 [Example 60, 3-[7-Amino-3-(3-methoxy-phenyl)-pyrazolo[1,5-a]pyrimidin-6-yl]-phenol] |  |  | < 10000 |
| Cc1nc2c(-c3ccc(N4CCN(C)CC4)cc3)cnn2c(N)c1-c1ccc(F)cc1 [Example 79, 6-(4-Fluoro-phenyl)-5-methyl-3-[4-(4-methyl-piperazin-1-yl)-phenyl]-pyrazolo[1,5-a]pyrimidin-7-ylamine] | 289 to 291 | < 1000 |  |
| Cc1nc2c(-c3cccc(N4C[C@@H](C)O[C@@H](C)C4)c3)cnn2c(N)c1-c1cccc(Cl)c1 [Example 89, 6-(3-Chloro-phenyl)-3-[3-((2R,6S)-2,6-dimethyl-morpholin-4-yl)-phenyl]-5-methyl-pyrazolo[1,5-a]pyrimidin-7-ylamine] | 165 to 167 | < 1000 |  |
| COc1ccc(-c2cnn3c(N)c(-c4ccc(F)c(Cl)c4)c(C)nc23)cc1OC [Example 94, 6-(3-Chloro-4-fluoro-phenyl)-3-(3,4-dimethoxy-phenyl)-5-methyl-pyrazolo[1,5-a]pyrimidin-7-ylamine] | 235 to 238 | < 1000 |  |
| Cc1nc2c(-c3cccc(N4CCN(C)CC4)c3)cnn2c(N)c1-c1ccc(F)c(F)c1 [Example 98, 6-(3,4-Difluoro-phenyl)-5-methyl-3-[3-(4-methyl-piperazin-1-yl)-phenyl]-pyrazolo[1,5-a]pyrimidin-7-ylamine] | 216 to 219 | < 1000 |  |
| COc1cc(N2CCN(C)CC2)ccc1-c1cnn2c(N)c(-c3cccc(O)c3)cnc12 [Example 76, 3-{7-Amino-3-[2-methoxy-4-(4-methyl-piperazin-1-yl)-phenyl]-pyrazolo[1,5-a]pyrimidin-6-yl}-phenol] | 217 to 220 | < 1000 |  |
| CN1CCN(c2ccc(-c3cnn4c(N)c(-c5ccccc5Cl)cnc34)cc2)CC1 [Example 77, 6-(2-Chloro-phenyl)-3-[4-(4-methyl-piperazin-1-yl)-phenyl]-pyrazolo[1,5-a]pyrimidin-7-ylamine] | 197 to 200 | < 1000 |  |
| Cc1nc2c(-c3cccc(N4CCC(N5CCCC5)CC4)c3)cnn2c(N)c1-c1ccc(F)cc1 [Example 103, 6-(4-Fluoro-phenyl)-5-methyl-3-[3-(4-pyrrolidin-1-yl-piperidin-1-yl)-phenyl]-pyrazolo[1,5-a]pyrimidin-7-ylamine] | 244 to 249 | < 1000 |  |
| Cc1nc2c(-c3ccc(N4CCN(C)CC4)cc3)cnn2c(N)c1-c1ccc(F)c(Cl)c1 [Example 83, 6-(3-Chloro-4-fluoro-phenyl)-5-methyl-3-[4-(4-methyl-piperazin-1-yl)-phenyl]-pyrazolo[1,5-a]pyrimidin-7-ylamine] | 264 to 265 | < 1000 |  |
| Cc1nc2c(-c3cccc(N4CCC(N5CCCC5)CC4)c3)cnn2c(N)c1-c1cccc(Cl)c1 [Example 102, 6-(3-Chloro-phenyl)-5-methyl-3-[3-(4-pyrrolidin-1-yl-piperidin-1-yl)-phenyl]-pyrazolo[1,5-a]pyrimidin-7-ylamine] | 188 to 193 | < 1000 |  |
| Cc1nc2c(-c3cccc(N4CCN(C)CC4)c3)cnn2c(N)c1-c1ccc(F)c(Cl)c1 [Example 82, 6-(3-Chloro-4-fluoro-phenyl)-5-methyl-3-[3-(4-methyl-piperazin-1-yl)-phenyl]pyrazolo[1,5-a]pyrimidin-7-ylamine] | 224 to 226 | < 1000 |  |
| COc1ccc(-c2cnn3c(N)c(-c4ccc(F)cc4)c(C)nc23)cc1 [Example 96, 6-(4-Fluoro-phenyl)-3-(4-methoxy-phenyl)-5-methyl-pyrazolo[1,5-a]pyrimidin-7-ylamine] | 243 to 244 | < 1000 |  |
| Cc1nc2c(-c3cccc([N+]4([O-])CC[N+](C)([O-])CC4)c3)cnn2c(N)c1-c1ccc(F)cc1 (stereo not drawn) [Example 107, 6-(4-Fluoro-phenyl)-5-methyl-3-[3-(4-methyl-1,4-dioxy-piperazin-1-yl)-phenyl]-pyrazolo[1,5-a]pyrimidin-7-ylamine] |  | < 1000 |  |
| COc1ccc(-c2cnn3c(N)c(-c4ccc(F)c(F)c4)c(C)nc23)cc1OC [Example 99, 6-(3,4-Difluoro-phenyl)-3-(3,4-dimethoxy-phenyl)-5-methyl-pyrazolo[1,5-a]pyrimidin-7-ylamine] | 230 to 235 | < 1000 |  |
| Nc1c(-c2cccc(O)c2)cnc2c(-c3cccnc3)cnn12 [Example 46, 3-[7-Amino-3-pyridin-3-yl-pyrazolo[1,5-a]pyrimidin-6-yl]-phenol] |  |  | < 10000 |
| COc1ccccc1-c1cnn2c(N)c(-c3cccc(O)c3)cnc12 [Example 48, 3-[7-Amino-3-(2-methoxy-phenyl)-pyrazolo[1,5-a]pyrimidin-6-yl]-phenol] |  |  | < 10000 |
| Cc1nc2c(-c3cccc(N4CC[N+](C)([O-])CC4)c3)cnn2c(N)c1-c1ccc(F)cc1 [Example 106, 6-(4-Fluoro-phenyl)-5-methyl-3-[3-(4-methyl-4-oxy-piperazin-1-yl)-phenyl]-pyrazolo[1,5-a]pyrimidin-7-ylamine] |  | < 1000 |  |
| Cc1nc2c(-c3cccc(N4CCOCC4)c3)cnn2c(N)c1-c1cccc(Cl)c1 [Example 87, 6-(3-Chloro-phenyl)-5-methyl-3-(3-morpholin-4-yl-phenyl)-pyrazolo[1,5-a]pyrimidin-7-ylamine] | 165 to 167 |  |  |
| CN1CCN(c2ccc(-c3cnn4c(N)c(-c5cccc(O)c5)cnc34)cc2)CC1 [Example 1, 3-{7-Amino-3-[4-(4-methyl-piperazin-1-yl)-phenyl]-pyrazolo[1,5-a]pyrimidin-6-yl}-phenol] |  |  | < 10000 |
| CN1CCN(c2cccc(-c3cnn4c(N)c(-c5cccc(O)c5)cnc34)c2)CC1 [Example 29, 3-{7-Amino-3-[3-(4-methyl-piperazin-1-yl)-phenyl]-pyrazolo[1,5-a]pyrimidin-6-yl}-phenol] |  |  | < 10000 |
